Test results as given in BindingDB's records for doi:10.3109/14756366.2011.643303 (Ondokuz Mayis University, 2013).

How the values were obtained:
Test in all cases: Esterase Activity Assay
Conditions in all cases: pH 7.4
[1] = target: Carbonic anhydrase 2 (Homo sapiens, UniProt P00918)
[2] = target: Carbonic anhydrase 4 (Homo sapiens, UniProt P22748)
[3] = target: T1, Carbonic anhydrase 3 (Bos taurus, UniProt Q3SZX4)
T1 sequence (Q3SZX4 whole entry): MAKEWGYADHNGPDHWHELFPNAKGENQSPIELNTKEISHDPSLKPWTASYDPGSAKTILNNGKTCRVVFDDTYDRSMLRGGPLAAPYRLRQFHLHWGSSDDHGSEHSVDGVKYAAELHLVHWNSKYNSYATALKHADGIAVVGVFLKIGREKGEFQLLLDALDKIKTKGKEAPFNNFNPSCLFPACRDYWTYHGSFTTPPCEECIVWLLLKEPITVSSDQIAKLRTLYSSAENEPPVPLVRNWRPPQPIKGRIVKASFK

[4] = target: Carbonic anhydrase 1 (Homo sapiens, UniProt P00915)
Sequence of Carbonic anhydrase 1 (P00915 whole entry): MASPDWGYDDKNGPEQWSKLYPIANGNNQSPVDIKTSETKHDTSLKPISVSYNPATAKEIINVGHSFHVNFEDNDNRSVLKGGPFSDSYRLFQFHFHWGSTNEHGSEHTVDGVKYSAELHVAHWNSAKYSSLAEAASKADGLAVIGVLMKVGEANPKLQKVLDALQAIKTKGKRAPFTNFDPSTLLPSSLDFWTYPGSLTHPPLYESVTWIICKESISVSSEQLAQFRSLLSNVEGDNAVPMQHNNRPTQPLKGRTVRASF

Sequence of Carbonic anhydrase 4 (P22748 whole entry): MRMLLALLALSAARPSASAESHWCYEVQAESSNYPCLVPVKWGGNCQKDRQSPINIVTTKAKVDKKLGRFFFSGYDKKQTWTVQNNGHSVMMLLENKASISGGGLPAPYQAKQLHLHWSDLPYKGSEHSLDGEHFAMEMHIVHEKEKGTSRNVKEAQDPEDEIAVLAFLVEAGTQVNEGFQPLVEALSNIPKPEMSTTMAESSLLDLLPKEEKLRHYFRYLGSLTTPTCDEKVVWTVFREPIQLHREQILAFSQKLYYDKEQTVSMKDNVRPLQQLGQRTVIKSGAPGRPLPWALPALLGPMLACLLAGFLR

Row | SMILES | Ki [1] [µM] | Ki [2] [µM] | Ki [3] [µM] | Ki [4] [µM]
1 | Oc1ccccc1 | 7.4 | 14.3 | 4.6 | 17.3
2 | Oc1cccc(O)c1 | 9.4 | 634 | 219 | 828
3 | Oc1ccccc1O [1,2-Dihydroxybenzene, XI] | 11.4 | – | 6.5 | –
4 | O=c1c(O)c(-c2ccc(O)cc2O)oc2cc(O)cc(O)c12 [2-(2,4-dihydroxyphenyl)-3,5,7-trihydroxychromen-4-one] | 4.4 | 15.7 | 21.3 | 12.8
5 | O=c1c(O)c(-c2ccc(O)c(O)c2)oc2cc(O)cc(O)c12 [2-(3,4-dihydroxyphenyl)-3,5,7-trihydroxy-chromone;hydrate] | 2.4 | 13.8 | 9.1 | 3.6
6 | O=c1cc(-c2ccc(O)c(O)c2)oc2cc(O)cc(O)c12 [2-(3,4-dihydroxyphenyl)-5,7-dihydroxy-4H-chromen-4-one] | 0.74 | 4.4 | 5.4 | 2.2
7 | Oc1cc(O)c2c(c1)O[C@H](c1ccc(O)c(O)c1)[C@@H](O)C2 [(+)-Catechin] | – | 5.6 | 2.2 | 6.8
8 | O=c1cc(-c2ccc(O)cc2)oc2cc(O)cc(O)c12 [Naringenin, 18] | 2.7 | 9.1 | 11.6 | 4.1
